The text below walks through data of patent US4604234A, “Protein having cell growth stimulating action, composition thereof and method for producing the same” (priority 1983, dated 1986).

The subject of assay [1] is BHK-21 cells. Description: Inhibitory effects of steroids on BHK-21 cells. The class given is cell-based, hamster. The settings on record: for activity at 0.5 µg/mL / activity at 1 µg/mL / activity at 5 µg/mL / activity at 25 µg/mL / activity at 50 µg/mL: Mesocricetus auratus, read-out: % of control cell numbers.
Assay [2] deals with BHK-21 cells. Description: Effects of WHS on BHK-21 cells in the presence of steroids. The class given is cell-based, hamster. The settings on record: steroid 50 μg/ml alone.
Assay [3] concerns human cutaneous fibroblasts. As to conditions: listed in descending order of inhibition; cited from earlier work.
The mark [4] stands for this setting: BHK-21, 48 h, 0.5 μg/ml, 2 days.
The mark [5] stands for this setting: BHK-21, 48 h, 1.0 μg/ml, 2 days.
Where [6] appears, read: BHK-21, 48 h, 5.0 μg/ml, 2 days.
[7] abbreviates: BHK-21, 48 h, 25.0 μg/ml, 2 days.
Where [8] appears, read: BHK-21, 48 h, 50.0 μg/ml, 2 days.
[9] abbreviates: BHK-21, 96 h, 0.5 μg/ml, 4 days.
The mark [10] stands for this setting: BHK-21, 96 h, 1.0 μg/ml, 4 days.
Setting [11] is: BHK-21, 96 h, 5.0 μg/ml, 4 days.
The mark [12] stands for this setting: BHK-21, 96 h, 25.0 μg/ml, 4 days.
The mark [13] stands for this setting: BHK-21, 96 h, 50.0 μg/ml, 4 days.
Where [14] appears, read: BHK-21, 144 h, 0.5 μg/ml, 6 days.
Setting [15] is: BHK-21, 144 h, 1.0 μg/ml, 6 days.
[16] abbreviates: BHK-21, 144 h, 5.0 μg/ml, 6 days.
The mark [17] stands for this setting: BHK-21, 144 h, 25.0 μg/ml, 6 days.
Setting [18] is: BHK-21, 144 h, 50.0 μg/ml, 6 days.

Like-named read-outs stand apart in the source and are kept apart here.

As to `C[C@@H]1C[C@H]2[C@@H]3CCC4=CC(=O)C=C[C@]4(C)[C@@]3(F)[C@@H](O)C[C@]2(C)[C@@]1(O)C(=O)CO` [Dexamethasone, dexamethasone], the cell numbers with BHK-21 cells [1] (0.5 μg/ml, 2 days) is 0.92 × 10^5 cells/dish; with BHK-21 cells [1] (0.5 μg/ml, 4 days), 2.32 × 10^5 cells/dish; in the assay with BHK-21 cells [1] (0.5 μg/ml, 6 days), 2.51 × 10^5 cells/dish; with BHK-21 cells [1] (1.0 μg/ml, 2 days), 0.87 × 10^5 cells/dish; with BHK-21 cells [1] (1.0 μg/ml, 4 days) it was 2.31 × 10^5 cells/dish; with BHK-21 cells [1] (1.0 μg/ml, 6 days) it was 2.54 × 10^5 cells/dish. Also, the cell numbers with BHK-21 cells [1] (5.0 μg/ml, 2 days) is 0.84 × 10^5 cells/dish; in the assay with BHK-21 cells [1] (5.0 μg/ml, 4 days), 2.22 × 10^5 cells/dish; in the assay on BHK-21 cells [1] (5.0 μg/ml, 6 days), 2.57 × 10^5 cells/dish; in the assay with BHK-21 cells [1] (25.0 μg/ml, 2 days) it was 0.71 × 10^5 cells/dish; in the assay on BHK-21 cells [1] (25.0 μg/ml, 4 days), 1.71 × 10^5 cells/dish; with BHK-21 cells [1] (25.0 μg/ml, 6 days) it was 2.33 × 10^5 cells/dish. Further, the cell numbers in the assay on BHK-21 cells [1] (50.0 μg/ml, 2 days) is listed as 0.62 × 10^5 cells/dish; with BHK-21 cells [1] (50.0 μg/ml, 4 days), 1.24 × 10^5 cells/dish; with BHK-21 cells [1] (50.0 μg/ml, 6 days) it was 1.84 × 10^5 cells/dish; with BHK-21 cells [2] (2nd day), 0.87 × 10^5 cells/dish; in the assay on BHK-21 cells [2] (4th day) it was 1.28 × 10^5 cells/dish. Moreover, the activity at 0.5 µg/mL is 94.8% in the assay on BHK-21 cells [1] (setting [4]), 87.2% in the assay on BHK-21 cells [1] (setting [9]) and 97.3% with BHK-21 cells [1] (setting [14]). Also, the activity at 1 µg/mL in the assay on BHK-21 cells [1] (setting [5]) stood at 89.7%; with BHK-21 cells [1] (setting [10]) it was 86.8%; with BHK-21 cells [1] (setting [15]), 98.4%. Besides, the activity at 5 µg/mL was 86.6% with BHK-21 cells [1] (setting [6]), 83.5% in the assay with BHK-21 cells [1] (setting [11]) and 99.6% with BHK-21 cells [1] (setting [16]). Moreover, the activity at 25 µg/mL in the assay with BHK-21 cells [1] (setting [7]) amounted to 73.2%; with BHK-21 cells [1] (setting [12]) it was 64.3%; in the assay on BHK-21 cells [1] (setting [17]) it was 90.3%. The activity at 50 µg/mL came to 63.9% with BHK-21 cells [1] (setting [8]), 46.6% with BHK-21 cells [1] (setting [13]) and 71.3% with BHK-21 cells [1] (setting [18]).

For the compound `C[C@]12C=CC(=O)C=C1CC[C@@H]1[C@@H]2[C@@H](O)C[C@@]2(C)[C@H]1CC[C@]2(O)C(=O)CO` [Prednisolone, prednisolone], the cell numbers in the assay on BHK-21 cells [1] (0.5 μg/ml, 2 days) is 1.20 × 10^5 cells/dish; with BHK-21 cells [1] (0.5 μg/ml, 4 days) it was 2.43 × 10^5 cells/dish; in the assay with BHK-21 cells [1] (0.5 μg/ml, 6 days) it was 2.51 × 10^5 cells/dish; in the assay with BHK-21 cells [1] (1.0 μg/ml, 2 days), 1.20 × 10^5 cells/dish; in the assay on BHK-21 cells [1] (1.0 μg/ml, 4 days) it was 2.45 × 10^5 cells/dish; in the assay on BHK-21 cells [1] (1.0 μg/ml, 6 days) it was 2.50 × 10^5 cells/dish. The cell numbers in the assay on BHK-21 cells [1] (5.0 μg/ml, 2 days) was 1.09 × 10^5 cells/dish; with BHK-21 cells [1] (5.0 μg/ml, 4 days), 2.33 × 10^5 cells/dish; with BHK-21 cells [1] (5.0 μg/ml, 6 days), 2.48 × 10^5 cells/dish; in the assay on BHK-21 cells [1] (25.0 μg/ml, 2 days), 0.85 × 10^5 cells/dish; in the assay with BHK-21 cells [1] (25.0 μg/ml, 4 days), 1.49 × 10^5 cells/dish; with BHK-21 cells [1] (25.0 μg/ml, 6 days), 1.91 × 10^5 cells/dish. Further, the cell numbers in the assay with BHK-21 cells [1] (50.0 μg/ml, 2 days) is 0.73 × 10^5 cells/dish; in the assay with BHK-21 cells [1] (50.0 μg/ml, 4 days), 1.01 × 10^5 cells/dish; with BHK-21 cells [1] (50.0 μg/ml, 6 days), 0.98 × 10^5 cells/dish; in the assay on BHK-21 cells [2] (2nd day), 0.78 × 10^5 cells/dish; in the assay on BHK-21 cells [2] (4th day) it was 0.94 × 10^5 cells/dish. For the same compound, the activity at 0.5 µg/mL with BHK-21 cells [1] (setting [4]) was determined as 91.6%; in the assay with BHK-21 cells [1] (setting [9]) it was 89.3%; with BHK-21 cells [1] (setting [14]) it was 94.7%. The activity at 1 µg/mL in the assay with BHK-21 cells [1] (setting [5]) came to 91.6%; with BHK-21 cells [1] (setting [10]), 90.1%; with BHK-21 cells [1] (setting [15]) it was 94.3%. The values for the activity at 5 µg/mL with BHK-21 cells [1] (setting [6]), with BHK-21 cells [1] (setting [11]) and in the assay with BHK-21 cells [1] (setting [16]) were 83.2%, 85.7% and 93.6%, respectively. For the same compound, the activity at 25 µg/mL was 64.9% in the assay on BHK-21 cells [1] (setting [7]), 54.8% with BHK-21 cells [1] (setting [12]) and 72.1% with BHK-21 cells [1] (setting [17]). The activity at 50 µg/mL turned out to be 55.7% in the assay on BHK-21 cells [1] (setting [8]), 37.1% in the assay on BHK-21 cells [1] (setting [13]) and 37% in the assay with BHK-21 cells [1] (setting [18]).

Consider `CCCCC(=O)O[C@]1(C(=O)CO)[C@@H](C)C[C@H]2[C@@H]3CCC4=CC(=O)C=C[C@]4(C)[C@@]3(F)[C@@H](O)C[C@@]21C` [betamethasone-17-valerate], for which the “growth inhibition of incubated human cutaneous fibroblasts” value in assay [3] is “inhibited”.
